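Interpolation was linear, between the two tested concentrations surrounding the appropriate level; five concentrations were tested over 48 hours in 96-well plates. Here, GI50 denotes the concentration required for 50% inhibition of growth.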 Calls of active or inactive are those of the source. No stated cut-off is given here; in the data, active = GI50 up to about 1.1 µM and inactive = higher.
Tests used:
Assay in all cases: DTP human tumour cell line panel, 48 h
[1] = test system: UACC-257
[2] = test system: NCI-H460
[3] = test system: RPMI-8226
[4] = test system: SNB-75
[5] = test system: NCI-H23
[6] = test system: HCT-15
[7] = test system: HOP-92
[8] = test system: CAKI-1
[9] = test system: UACC-62
[10] = test system: CCRF-CEM
[11] = test system: K562
[12] = test system: SF-268
[13] = test system: SNB-19
[14] = test system: SK-MEL-28
[15] = test system: Malme-3M
[16] = test system: KM12
[17] = test system: M14
[18] = test system: SW-620
[19] = test system: NCI/ADR-RES

SMILES | GI50 [1] | GI50 [2] | GI50 [3] | GI50 [4] | GI50 [5] | GI50 [6] [µM] | GI50 [7] | GI50 [8] | GI50 [9] | GI50 [10] | GI50 [11] | GI50 [12] | GI50 [13] | GI50 [14] | GI50 [15] | GI50 [16] | GI50 [17] | GI50 [18] | GI50 [19]
N#C/C(=C\c1cc(O)ccc1O)C(N)=O | 28.4 µM (inactive) | 40.7 µM (inactive) | 27.2 µM (inactive) | 14.6 µM (inactive) | 36.2 µM (inactive) | 44.2 | 34.4 µM (inactive) | 46.2 µM (inactive) | 30.4 µM (inactive) | 21.5 µM (inactive) | 27 µM (inactive) | 35.1 µM (inactive) | 57.8 µM (inactive) | 37.1 µM (inactive) | 74 µM (inactive) | 46.1 µM (inactive) | 38.6 µM (inactive) | 49.9 µM (inactive) | 
CC(=O)OCC1OC(OC2CC3C(C)(C)C(O)CC[C@]3(C)C3CCC45CC4(CC[C@H]5C(C)CC(O)C4OC4(C)C)[C@]23C)C(O)C(O)C1O (stereo partly specified) | 9.04 µM (inactive) | 8.91 µM (inactive) | 0.711 µM (active) | 7.46 µM (inactive) | 8.75 µM (inactive) | 8.45 | 5.06 µM (inactive) | 8.87 µM (inactive) | 7.45 µM (inactive) | 1.56 µM (inactive) | 1.85 µM (inactive) | 6.38 µM (inactive) | 8 µM (inactive) | 7.41 µM (inactive) | 8.97 µM (inactive) | 8.04 µM (inactive) | 8.04 µM (inactive) | 7.98 µM (inactive) | 
COC(=O)c1ccc2c(c1)CC1(C2)Cc2cc3c(cc2C1)CCC3 | > 100 µM (inactive) | > 100 µM (inactive) | > 100 µM (inactive) | > 100 µM (inactive) | > 100 µM (inactive) | > 100 | > 100 µM (inactive) | > 100 µM (inactive) |  | > 100 µM (inactive) | > 100 µM (inactive) | > 100 µM (inactive) | > 100 µM (inactive) | > 100 µM (inactive) | 79.6 µM (inactive) |  | > 100 µM (inactive) | > 100 µM (inactive) | > 100 µM (inactive)
CCCCCCCCCCCc1cc(=O)c2c(O)cccc2o1 | 36 µM (inactive) | 79.1 µM (inactive) | 30.6 µM (inactive) | > 100 µM (inactive) | > 100 µM (inactive) | 54.8 | > 100 µM (inactive) | > 100 µM (inactive) | > 100 µM (inactive) | 20.3 µM (inactive) | 43.7 µM (inactive) | > 100 µM (inactive) | > 100 µM (inactive) | 94.6 µM (inactive) | > 100 µM (inactive) | 54.2 µM (inactive) | 64 µM (inactive) | > 100 µM (inactive) | 

— ChEMBL document CHEMBL1201862, “PubChem BioAssay data set” (2004)
